≈ marks a conversion by molar mass, not a printed value. Calls of active or inactive are those of the source. The rule behind the calls is not given here.
Assays:
Type in all cases: functional
[1] = tested on: Staphylococcus epidermidis; assay: Antimicrobial activity against Staphylococcus epidermidis by broth dilution method
[2] = tested on: Escherichia coli; assay: Antimicrobial activity against Escherichia coli MTCC 443 by broth dilution method
[3] = tested on: Aspergillus niger; assay: Antimicrobial activity against Aspergillus niger MTCC 282 at 150 ug after 48 hr by agar well diffusion method; settings: for zone of inhibition at 150 µg/disc: MTCC 282, 48 h, read-out: IZ
[4] = tested on: Candida albicans; assay: Antimicrobial activity against Candida albicans MTCC 227 at 100 ug after 48 hr by agar well diffusion method; settings: for zone of inhibition at 100 µg/disc: MTCC 227, 48 h, read-out: IZ
[5] = tested on: Saccharomyces cerevisiae; assay: Antimicrobial activity against Saccharomyces cerevisiae MTCC 36 at 150 ug after 48 hr by agar well diffusion method; settings: for zone of inhibition at 150 µg/disc: MTCC 36, 48 h, read-out: IZ
[6] = tested on: Saccharomyces cerevisiae; assay: Antimicrobial activity against Saccharomyces cerevisiae MTCC 36 at 100 ug after 48 hr by agar well diffusion method; settings: for zone of inhibition at 100 µg/disc: MTCC 36, 48 h, read-out: IZ
[7] = tested on: Klebsiella pneumoniae; assay: Antimicrobial activity against Klebsiella pneumoniae MTCC 618 by broth dilution method
[8] = tested on: Staphylococcus aureus; assay: Antimicrobial activity against Staphylococcus aureus MTCC 96 by broth dilution method
[9] = tested on: Bacillus subtilis; assay: Antimicrobial activity against Bacillus subtilis MTCC 441 by broth dilution method
[10] = tested on: Candida albicans; assay: Antimicrobial activity against Candida albicans MTCC 227 at 150 ug after 48 hr by agar well diffusion method; settings: for zone of inhibition at 150 µg/disc: MTCC 227, 48 h, read-out: IZ
[11] = tested on: Rhizopus arrhizus; assay: Antimicrobial activity against Rhizopus oryzae MTCC 262 at 150 ug after 48 hr by agar well diffusion method; settings: for zone of inhibition at 150 µg/disc: MTCC 262, 48 h, read-out: IZ
[12] = tested on: Rhizopus arrhizus; assay: Antimicrobial activity against Rhizopus oryzae MTCC 262 at 100 ug after 48 hr by agar well diffusion method; settings: for zone of inhibition at 100 µg/disc: MTCC 262, 48 h, read-out: IZ
[13] = tested on: Aspergillus niger; assay: Antimicrobial activity against Aspergillus niger MTCC 282 at 100 ug after 48 hr by agar well diffusion method; settings: for zone of inhibition at 100 µg/disc: MTCC 282, 48 h, read-out: IZ
[14] = tested on: Pseudomonas aeruginosa; assay: Antimicrobial activity against Pseudomonas aeruginosa MTCC 741 by broth dilution method

Row | Structure (SMILES) | MIC [1] [mg/L] | MIC [2] [mg/L] | Activity [3] | Activity [4] | Activity [5] | Activity [6] | MIC [7] [mg/L] | MIC [8] [mg/L] | MIC [9] [mg/L] | Activity [10] | Activity [11] | Activity [12] | Activity [13] | MIC [14] [mg/L] | zone of inhibition at 150 µg/disc [11] [mm] | zone of inhibition at 150 µg/disc [3] [mm] | zone of inhibition at 100 µg/disc [4] [mm] | zone of inhibition at 150 µg/disc [5] [mm] | zone of inhibition at 100 µg/disc [6] [mm] | zone of inhibition at 150 µg/disc [10] [mm] | also measured
1 | OCCN1CCN(c2nc3ccccc3o2)CC1 | 150 (≈ 607 µM) | 150 (≈ 607 µM) | inactive | inactive | inactive | inactive | 75 (≈ 303 µM) | 75 (≈ 303 µM) | 150 (≈ 607 µM) | inactive | inactive | inactive | inactive | 75 (≈ 303 µM) | – | – | – | – | – | – | –
2 | c1cnc(N2CCN(c3nc4ccccc4o3)CC2)nc1 | 150 (≈ 533 µM) | 150 (≈ 533 µM) | inactive | inactive | inactive | inactive | 75 (≈ 267 µM) | 150 (≈ 533 µM) | 150 (≈ 533 µM) | inactive | – | – | inactive | 75 (≈ 267 µM) | 10 | – | – | – | – | – | zone of inhibition at 100 µg/disc [12]: 8 mm
3 | O=c1oc2ccc(Cl)cc2n1CCCN1CCN(c2ccccn2)CC1 | 150 (≈ 402 µM) | 150 (≈ 402 µM) | inactive | inactive | inactive | inactive | 150 (≈ 402 µM) | 150 (≈ 402 µM) | 150 (≈ 402 µM) | inactive | inactive | inactive | inactive | 75 (≈ 201 µM) | – | – | – | – | – | – | –
4 | O=c1oc2ccc(Cl)cc2n1CCCCl | 150 (≈ 610 µM) | 150 (≈ 610 µM) | – | – | – | – | 150 (≈ 610 µM) | 150 (≈ 610 µM) | 150 (≈ 610 µM) | – | – | – | – | 150 (≈ 610 µM) | 15 | 17 | 14 | 15 | 12 | 19 | zone of inhibition at 100 µg/disc [12]: 11 mm; zone of inhibition at 100 µg/disc [13]: 13 mm
5 | Clc1cccc(N2CCN(c3nc4ccccc4o3)CC2)c1 | 150 (≈ 478 µM) | 150 (≈ 478 µM) | inactive | inactive | inactive | inactive | 150 (≈ 478 µM) | 75 (≈ 239 µM) | 150 (≈ 478 µM) | inactive | inactive | inactive | inactive | 150 (≈ 478 µM) | – | – | – | – | – | – | –
6 | CN[C@@H]1[C@H](O[C@H]2[C@H](O[C@H]3[C@H](O)[C@@H](O)[C@H](N=C(N)N)[C@@H](O)[C@@H]3N=C(N)N)O[C@@H](C)[C@]2(O)C=O)O[C@@H](CO)[C@H](O)[C@H]1O [STREPTOMYCIN] | 3.12 (≈ 5.37 µM) | 6.25 (≈ 10.7 µM) | – | – | – | – | 3.12 (≈ 5.37 µM) | 6.25 (≈ 10.7 µM) | 6.25 (≈ 10.7 µM) | – | – | – | – | 1.56 (≈ 2.69 µM) | – | – | – | – | – | – | –
7 | CC1(C)S[C@@H]2[C@H](NC(=O)Cc3ccccc3)C(=O)N2[C@H]1C(=O)O [PENICILLIN G] | 3.12 (≈ 9.35 µM) | 12.5 (≈ 37.4 µM) | – | – | – | – | 6.25 (≈ 18.7 µM) | 1.56 (≈ 4.67 µM) | 1.56 (≈ 4.67 µM) | – | – | – | – | 12.5 (≈ 37.4 µM) | – | – | – | – | – | – | –
8 | c1ccc(CN2CCN(c3nc4ccccc4o3)CC2)cc1 | 75 (≈ 256 µM) | 150 (≈ 511 µM) | – | inactive | – | – | 150 (≈ 511 µM) | 150 (≈ 511 µM) | 150 (≈ 511 µM) | – | – | inactive | inactive | 75 (≈ 256 µM) | 9 | 9 | – | 10 | 12 | 9 | –
9 | c1ccc(N2CCN(c3nc4ccccc4o3)CC2)nc1 | 150 (≈ 535 µM) | 150 (≈ 535 µM) | inactive | – | inactive | inactive | 150 (≈ 535 µM) | 150 (≈ 535 µM) | 150 (≈ 535 µM) | – | inactive | inactive | inactive | 75 (≈ 268 µM) | – | – | 8 | – | – | 10 | –
10 | c1ccc2oc(N3CCOCC3)nc2c1 | 150 (≈ 734 µM) | 150 (≈ 734 µM) | inactive | – | inactive | inactive | 37.5 (≈ 184 µM) | 75 (≈ 367 µM) | 150 (≈ 734 µM) | – | inactive | inactive | inactive | 150 (≈ 734 µM) | – | – | 7 | – | – | 9 | –
11 | c1ccc(N2CCN(c3nc4ccccc4o3)CC2)cc1 | 150 (≈ 537 µM) | 75 (≈ 268 µM) | inactive | inactive | inactive | inactive | 150 (≈ 537 µM) | 150 (≈ 537 µM) | 150 (≈ 537 µM) | – | inactive | inactive | inactive | 75 (≈ 268 µM) | – | – | – | – | – | 9 | –
12 | O=c1oc2ccc(Cl)cc2n1CCCN1CCN(c2cccc(Cl)c2)CC1 | 150 (≈ 369 µM) | 150 (≈ 369 µM) | inactive | inactive | inactive | inactive | 150 (≈ 369 µM) | 150 (≈ 369 µM) | 150 (≈ 369 µM) | inactive | inactive | inactive | inactive | 150 (≈ 369 µM) | – | – | – | – | – | – | –
13 | C#CCn1c(=O)oc2ccc(Cl)cc21 | 75 (≈ 361 µM) | 37.5 (≈ 181 µM) | – | – | – | – | 75 (≈ 361 µM) | 75 (≈ 361 µM) | 75 (≈ 361 µM) | – | – | – | – | 37.5 (≈ 181 µM) | 19 | 18 | 8 | 18 | 14 | 11 | zone of inhibition at 100 µg/disc [12]: 15 mm; zone of inhibition at 100 µg/disc [13]: 15 mm
14 | CCN1CCN(c2nc3ccccc3o2)CC1 | 75 (≈ 324 µM) | 150 (≈ 649 µM) | – | – | – | – | 75 (≈ 324 µM) | 150 (≈ 649 µM) | 150 (≈ 649 µM) | – | inactive | inactive | – | 150 (≈ 649 µM) | – | 12 | 8 | 9 | 7 | 10 | zone of inhibition at 100 µg/disc [13]: 9 mm
15 | O=c1oc2ccc(Cl)cc2n1CCCN1CCOCC1 | 75 (≈ 253 µM) | 37.5 (≈ 126 µM) | – | – | – | – | 75 (≈ 253 µM) | 75 (≈ 253 µM) | 75 (≈ 253 µM) | – | – | – | – | 37.5 (≈ 126 µM) | 13 | 10 | 8 | 10 | 8 | 10 | zone of inhibition at 100 µg/disc [12]: 10 mm; zone of inhibition at 100 µg/disc [13]: 8 mm
